# Tested on: SOD1^G93A mice
# Experiment: In vivo ALS model muscle physiology study with 2A10 and riluzole
# Parameters: species or system mouse
# Description: Fresh solutions were prepared once a week with the total consumed volume measured in order to ensure a constant daily and weekly dose.
smiles,measurement,setting,value
"Nc1nc2ccc(OC(F)(F)F)cc2s1 [Riluzole, 2-Amino-6-(trifluoromethoxy)benzothiazole]",TA maximum tetanic force,"day 90, relative to SOD1-B vehicle group, riluzole 30 mg/kg p 0.0607, anti-Nogo-A 30 mg/kg p 0.1219, combination p 0.039",failed to reach statistical significance
same,TA time to 1/2 relaxation,"day 90, vs SOD1 vehicle, riluzole plus 3 mg/kg anti-Nogo-A p value 0.0212",trend to normalisation

# Reference: patent publication US20110268729A1, “TREATMENT OF AMYOTROPHIC LATERAL SCLEROSIS BY NOGO-A-ANTAGONIST” (priority 2008, published 2011)
